Key:
barnyard grass [1] = experiment: Test Example 3: herbicidal effect by foliage application, Wagner pot (Table 18, symbol H); assay type: in vivo, barnyard grass (Echinochloa crus-galli); details: 320 g/ha
Procedure, shortened: (§1)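 Plants were sown in alluvial soil held under 0.1–0.5 cm standing water and grown 14 days in a greenhouse at 25–30 °C. An emulsifiable formulation, water-diluted to the set dose, was then sprayed onto the foliage, and effects were scored three weeks later using previously defined criteria.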

Chinese sprangletop = experiment: Test Example 3: herbicidal effect by foliage application, Wagner pot (Table 18, symbol D); assay type: in vivo, chinese sprangletop (Leptochloa chinensis); details: 320 g/ha
Procedure, shortened: as §1

rice flat sedge = experiment: Test Example 3: herbicidal effect by foliage application, Wagner pot (Table 18, symbol E); assay type: in vivo, rice flat sedge (Cyperus iria); details: 320 g/ha
Procedure, shortened: as §1

southern crabgrass [2] = experiment: Test Example 4: herbicidal effect by soil treatment (Table 19, symbol F); assay type: in vivo, southern crabgrass (Digitaria ciliaris); details: for F: southern crabgrass, herbicidal effect rating: AAH 320 g/ha
Procedure, shortened: (§2)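 Soil-surface application: an emulsion agent diluted with water to the predetermined dose is sprayed uniformly over seeds lying under roughly 1.5 cm of sterilized diluvial soil. Boxes stay in a greenhouse at 25° C. to 30° C. Three weeks later, each species is graded on previously defined criteria.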

green foxtail [3] = experiment: Test Example 4: herbicidal effect by soil treatment (Table 19, symbol G); assay type: in vivo, green foxtail (Setaria viridis); details: for G: green foxtail, herbicidal effect rating: AAH 320 g/ha
Procedure, shortened: as §2

barnyard grass [4] = experiment: Test Example 4: herbicidal effect by soil treatment (Table 19, symbol H); assay type: in vivo, barnyard grass (Echinochloa crus-galli); details: for H: barnyard grass, herbicidal effect rating: AAH 320 g/ha
Procedure, shortened: as §2

wild oat [5] = experiment: Test Example 4: herbicidal effect by soil treatment (Table 19, symbol I); assay type: in vivo, wild oat (Avena fatua); details: for I: wild oat, herbicidal effect rating: AAH 320 g/ha
Procedure, shortened: as §2

blackgrass [6] = experiment: Test Example 4: herbicidal effect by soil treatment (Table 19, symbol J); assay type: in vivo, blackgrass (Alopecurus myosuroides); details: for J: blackgrass, herbicidal effect rating: AAH 320 g/ha
Procedure, shortened: as §2

Italian ryegrass [7] = experiment: Test Example 4: herbicidal effect by soil treatment (Table 19, symbol K); assay type: in vivo, Italian ryegrass (Lolium multiflorum); details: for K: Italian ryegrass, herbicidal effect rating: AAH 320 g/ha
Procedure, shortened: as §2

windgrass [8] = experiment: Test Example 4: herbicidal effect by soil treatment (Table 19, symbol L); assay type: in vivo, windgrass (Apera spica-venti); details: for L: windgrass, herbicidal effect rating: AAH 320 g/ha
Procedure, shortened: as §2

velvetleaf [9] = experiment: Test Example 4: herbicidal effect by soil treatment (Table 19, symbol M); assay type: in vivo, velvetleaf (Abutilon theophrasti); details: for M: velvetleaf, herbicidal effect rating: AAH 320 g/ha
Procedure, shortened: as §2

redroot pigweed = experiment: Test Example 4: herbicidal effect by soil treatment (Table 19, symbol N); assay type: in vivo, redroot pigweed (Amaranthus retroflexus); details: for N: redroot pigweed, herbicidal effect rating: AAH 320 g/ha
Procedure, shortened: as §2

lambsquarters [10] = experiment: Test Example 4: herbicidal effect by soil treatment (Table 19, symbol O); assay type: in vivo, lambsquarters (Chenopodium album); details: for O: lambsquarters, herbicidal effect rating: AAH 320 g/ha
Procedure, shortened: as §2

chickweed = experiment: Test Example 4: herbicidal effect by soil treatment (Table 19, symbol P); assay type: in vivo, common chickweed (Stellaria media); details: for P: chickweed, herbicidal effect rating: AAH 320 g/ha
Procedure, shortened: as §2

persian speedwell [11] = experiment: Test Example 4: herbicidal effect by soil treatment (Table 19, symbol R); assay type: in vivo, Persian speedwell (Veronica persica); details: for R: persian speedwell, herbicidal effect rating: AAH 320 g/ha
Procedure, shortened: as §2

southern crabgrass [12] = experiment: Test Example 5: herbicidal effect by foliage application, plastic box (Table 20, symbol F); assay type: in vivo, southern crabgrass (Digitaria ciliaris); details: foliage application, 320 g/ha, 3 weeks after application
Procedure, shortened: (§3)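 Sow seeds spot-wise in sterilized diluvial soil; cover with ~1.5 cm soil. Grow 14 days in greenhouse, 25° C. to 30° C. Spray foliage with emulsion diluted to predetermined amount. Rate effect after 3 weeks.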

green foxtail [13] = experiment: Test Example 5: herbicidal effect by foliage application, plastic box (Table 20, symbol G); assay type: in vivo, green foxtail (Setaria viridis); details: foliage application, 320 g/ha, 3 weeks after application
Procedure, shortened: as §3

barnyard grass [14] = experiment: Test Example 5: herbicidal effect by foliage application, plastic box (Table 20, symbol H); assay type: in vivo, barnyard grass (Echinochloa crus-galli); details: foliage application, 320 g/ha, 3 weeks after application
Procedure, shortened: as §3

wild oat [15] = experiment: Test Example 5: herbicidal effect by foliage application, plastic box (Table 20, symbol I); assay type: in vivo, wild oat (Avena fatua); details: foliage application, 320 g/ha, 3 weeks after application
Procedure, shortened: as §3

blackgrass [16] = experiment: Test Example 5: herbicidal effect by foliage application, plastic box (Table 20, symbol J); assay type: in vivo, blackgrass (Alopecurus myosuroides); details: foliage application, 320 g/ha, 3 weeks after application
Procedure, shortened: as §3

Italian ryegrass [17] = experiment: Test Example 5: herbicidal effect by foliage application, plastic box (Table 20, symbol K); assay type: in vivo, Italian ryegrass (Lolium multiflorum); details: foliage application, 320 g/ha, 3 weeks after application
Procedure, shortened: as §3

windgrass [18] = experiment: Test Example 5: herbicidal effect by foliage application, plastic box (Table 20, symbol L); assay type: in vivo, windgrass (Apera spica-venti); details: foliage application, 320 g/ha, 3 weeks after application
Procedure, shortened: as §3

velvetleaf [19] = experiment: Test Example 5: herbicidal effect by foliage application, plastic box (Table 20, symbol M); assay type: in vivo, velvetleaf (Abutilon theophrasti); details: foliage application, 320 g/ha, 3 weeks after application
Procedure, shortened: as §3

lambsquarters [20] = experiment: Test Example 5: herbicidal effect by foliage application, plastic box (Table 20, symbol O); assay type: in vivo, lambsquarters (Chenopodium album); details: foliage application, 320 g/ha, 3 weeks after application
Procedure, shortened: as §3

persian speedwell [21] = experiment: Test Example 5: herbicidal effect by foliage application, plastic box (Table 20, symbol R); assay type: in vivo, Persian speedwell (Veronica persica); details: foliage application, 320 g/ha, 3 weeks after application
Procedure, shortened: as §3

SMILES	herbicidal effect on H (barnyard grass), rating 0-5 (barnyard grass [1])	herbicidal effect on D (Chinese sprangletop), rating 0-5 (Chinese sprangletop)	herbicidal effect on E (rice flat sedge), rating 0-5 (rice flat sedge)	F: southern crabgrass, herbicidal effect rating (southern crabgrass [2])	G: green foxtail, herbicidal effect rating (green foxtail [3])	H: barnyard grass, herbicidal effect rating (barnyard grass [4])	I: wild oat, herbicidal effect rating (wild oat [5])	J: blackgrass, herbicidal effect rating (blackgrass [6])	K: Italian ryegrass, herbicidal effect rating (Italian ryegrass [7])	L: windgrass, herbicidal effect rating (windgrass [8])	effect on southern crabgrass (F) (southern crabgrass [12])	effect on green foxtail (G) (green foxtail [13])	effect on barnyard grass (H) (barnyard grass [14])	effect on wild oat (I) (wild oat [15])	effect on blackgrass (J) (blackgrass [16])	effect on Italian ryegrass (K) (Italian ryegrass [17])	effect on windgrass (L) (windgrass [18])	effect on velvetleaf (M) (velvetleaf [19])	effect on lambsquarters (O) (lambsquarters [20])	effect on persian speedwell (R) (persian speedwell [21])	also measured
CCCC(=O)Oc1c(OC)nn(C)c(=O)c1-c1c(-c2cc3ccccc3s2)sc2ccccc12 [1-197]	4 (Herbicidal rate of 70% or more and less than 90%)	2 (Herbicidal rate of 20% or more and less than 40%)	4 (Herbicidal rate of 70% or more and less than 90%)	0 (Herbicidal rate of 5% or less (almost no effect))	0 (Herbicidal rate of 5% or less (almost no effect))	0 (Herbicidal rate of 5% or less (almost no effect))	0 (Herbicidal rate of 5% or less (almost no effect))	0 (Herbicidal rate of 5% or less (almost no effect))	0 (Herbicidal rate of 5% or less (almost no effect))	0 (Herbicidal rate of 5% or less (almost no effect))	0 (Herbicidal rate of 5% or less (almost no effect))	1 (Herbicidal rate of 5% or more and less than 20%)	0 (Herbicidal rate of 5% or less (almost no effect))	0 (Herbicidal rate of 5% or less (almost no effect))	0 (Herbicidal rate of 5% or less (almost no effect))	0 (Herbicidal rate of 5% or less (almost no effect))	0 (Herbicidal rate of 5% or less (almost no effect))	3 (Herbicidal rate of 40% or more and less than 70%)	1 (Herbicidal rate of 5% or more and less than 20%)	5 (Herbicidal rate of 90% or more (almost completely withered))	M: velvetleaf, herbicidal effect rating (velvetleaf [9]): 0 (Herbicidal rate of 5% or less (almost no effect)); N: redroot pigweed, herbicidal effect rating (redroot pigweed): 0 (Herbicidal rate of 5% or less (almost no effect)); O: lambsquarters, herbicidal effect rating (lambsquarters [10]): 0 (Herbicidal rate of 5% or less (almost no effect)); P: chickweed, herbicidal effect rating (chickweed): 5 (Herbicidal rate of 90% or more (almost completely withered)); R: persian speedwell, herbicidal effect rating (persian speedwell [11]): 5 (Herbicidal rate of 90% or more (almost completely withered))
Cc1nn(C)c(=O)c(-c2c(-c3ccc(O)cc3)sc3ccccc23)c1O [1-200]	4 (Herbicidal rate of 70% or more and less than 90%)	3 (Herbicidal rate of 40% or more and less than 70%)	3 (Herbicidal rate of 40% or more and less than 70%)	0 (Herbicidal rate of 5% or less (almost no effect))	0 (Herbicidal rate of 5% or less (almost no effect))	0 (Herbicidal rate of 5% or less (almost no effect))	0 (Herbicidal rate of 5% or less (almost no effect))	0 (Herbicidal rate of 5% or less (almost no effect))	0 (Herbicidal rate of 5% or less (almost no effect))	0 (Herbicidal rate of 5% or less (almost no effect))	3 (Herbicidal rate of 40% or more and less than 70%)	3 (Herbicidal rate of 40% or more and less than 70%)	4 (Herbicidal rate of 70% or more and less than 90%)	0 (Herbicidal rate of 5% or less (almost no effect))	0 (Herbicidal rate of 5% or less (almost no effect))	1 (Herbicidal rate of 5% or more and less than 20%)	0 (Herbicidal rate of 5% or less (almost no effect))	5 (Herbicidal rate of 90% or more (almost completely withered))	4 (Herbicidal rate of 70% or more and less than 90%)	5 (Herbicidal rate of 90% or more (almost completely withered))	M: velvetleaf, herbicidal effect rating (velvetleaf [9]): 0 (Herbicidal rate of 5% or less (almost no effect)); N: redroot pigweed, herbicidal effect rating (redroot pigweed): 0 (Herbicidal rate of 5% or less (almost no effect)); O: lambsquarters, herbicidal effect rating (lambsquarters [10]): 0 (Herbicidal rate of 5% or less (almost no effect)); P: chickweed, herbicidal effect rating (chickweed): 1 (Herbicidal rate of 5% or more and less than 20%); R: persian speedwell, herbicidal effect rating (persian speedwell [11]): 3 (Herbicidal rate of 40% or more and less than 70%)
Cc1nn(C)c(=O)c(-c2c(-c3ccc(F)cc3)sc3ccc(F)cc23)c1OS(=O)(=O)N(C)C [2-009]	5 (Herbicidal rate of 90% or more (almost completely withered))	3 (Herbicidal rate of 40% or more and less than 70%)	4 (Herbicidal rate of 70% or more and less than 90%)	–	–	–	–	–	–	–	5 (Herbicidal rate of 90% or more (almost completely withered))	5 (Herbicidal rate of 90% or more (almost completely withered))	4 (Herbicidal rate of 70% or more and less than 90%)	0 (Herbicidal rate of 5% or less (almost no effect))	0 (Herbicidal rate of 5% or less (almost no effect))	4 (Herbicidal rate of 70% or more and less than 90%)	0 (Herbicidal rate of 5% or less (almost no effect))	4 (Herbicidal rate of 70% or more and less than 90%)	3 (Herbicidal rate of 40% or more and less than 70%)	5 (Herbicidal rate of 90% or more (almost completely withered))	herbicidal effect rating, F: southern crabgrass (southern crabgrass [2]; 320 g/ha): 1 (Herbicidal rate of 5% or more and less than 20%); herbicidal effect rating, G: green foxtail (green foxtail [3]; 320 g/ha): 3 (Herbicidal rate of 40% or more and less than 70%); herbicidal effect rating, H: barnyard grass (barnyard grass [4]; 320 g/ha): 0 (Herbicidal rate of 5% or less (almost no effect)); herbicidal effect rating, I: wild oat (wild oat [5]; 320 g/ha): 0 (Herbicidal rate of 5% or less (almost no effect)); herbicidal effect rating, J: blackgrass (blackgrass [6]; 320 g/ha): 0 (Herbicidal rate of 5% or less (almost no effect)); herbicidal effect rating, K: Italian ryegrass (Italian ryegrass [7]; 320 g/ha): 4 (Herbicidal rate of 70% or more and less than 90%); herbicidal effect rating, L: windgrass (windgrass [8]; 320 g/ha): 0 (Herbicidal rate of 5% or less (almost no effect)); herbicidal effect rating, M: velvetleaf (velvetleaf [9]; 320 g/ha): 2 (Herbicidal rate of 20% or more and less than 40%); herbicidal effect rating, N: redroot pigweed (redroot pigweed; 320 g/ha): 5 (Herbicidal rate of 90% or more (almost completely withered)); herbicidal effect rating, O: lambsquarters (lambsquarters [10]; 320 g/ha): 3 (Herbicidal rate of 40% or more and less than 70%); herbicidal effect rating, P: chickweed (chickweed; 320 g/ha): 4 (Herbicidal rate of 70% or more and less than 90%); herbicidal effect rating, R: persian speedwell (persian speedwell [11]; 320 g/ha): 3 (Herbicidal rate of 40% or more and less than 70%)
